Assay results from ChEMBL document CHEMBL1147512, “Development of subtype-selective ligands as antagonists at nicotinic receptors mediating nicotine-evoked dopamine release” (Bioorg Med Chem Lett, 2004).
pIC50, pKi: −log10 of the molar value.

How the values were obtained:
[1] = molecular target: T1, Neuronal acetylcholine receptor; alpha4/beta2 (Rattus norvegicus, UniProt P09483+P12390); assay: Inhibitory activity against nAChR mediated nicotine-evoked [3H]DA overflow using rat striatal slices; type: functional
T1 sequence (P09483 whole entry): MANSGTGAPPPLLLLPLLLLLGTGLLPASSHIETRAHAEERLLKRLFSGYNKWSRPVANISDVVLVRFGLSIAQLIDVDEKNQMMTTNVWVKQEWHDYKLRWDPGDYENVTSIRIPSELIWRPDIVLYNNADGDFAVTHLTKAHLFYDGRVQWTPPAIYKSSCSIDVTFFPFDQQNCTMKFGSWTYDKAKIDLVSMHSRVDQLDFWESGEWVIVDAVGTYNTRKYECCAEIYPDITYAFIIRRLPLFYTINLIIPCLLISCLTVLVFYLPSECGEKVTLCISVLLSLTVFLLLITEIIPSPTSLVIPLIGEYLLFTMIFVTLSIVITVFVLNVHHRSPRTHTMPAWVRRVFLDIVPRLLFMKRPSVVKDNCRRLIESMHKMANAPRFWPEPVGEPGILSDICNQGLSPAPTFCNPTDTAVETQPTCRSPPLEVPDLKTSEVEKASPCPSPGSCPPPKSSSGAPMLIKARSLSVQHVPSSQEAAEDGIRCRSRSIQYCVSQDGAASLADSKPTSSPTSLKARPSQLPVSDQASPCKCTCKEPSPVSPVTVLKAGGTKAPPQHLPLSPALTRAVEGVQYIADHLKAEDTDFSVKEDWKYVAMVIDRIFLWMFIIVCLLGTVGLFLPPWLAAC
T1 sequence (P12390 whole entry): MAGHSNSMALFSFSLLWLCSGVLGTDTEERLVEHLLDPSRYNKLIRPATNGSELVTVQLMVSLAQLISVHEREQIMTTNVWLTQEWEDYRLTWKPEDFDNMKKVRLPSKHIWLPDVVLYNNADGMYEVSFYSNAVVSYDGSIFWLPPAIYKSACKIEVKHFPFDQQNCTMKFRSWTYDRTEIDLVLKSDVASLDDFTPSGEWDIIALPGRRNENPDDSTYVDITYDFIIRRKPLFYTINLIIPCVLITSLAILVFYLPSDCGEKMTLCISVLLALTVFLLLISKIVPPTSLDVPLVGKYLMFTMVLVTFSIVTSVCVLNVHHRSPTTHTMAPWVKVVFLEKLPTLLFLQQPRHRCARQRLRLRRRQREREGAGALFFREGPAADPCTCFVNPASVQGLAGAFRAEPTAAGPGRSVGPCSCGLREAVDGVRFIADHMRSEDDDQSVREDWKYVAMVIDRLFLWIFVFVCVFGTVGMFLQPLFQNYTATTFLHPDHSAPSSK

[2] = molecular target: T2, Neuronal acetylcholine receptor subunit alpha-7 (Rattus norvegicus, UniProt Q05941); assay: Inhibition of [3H]-MLA binding to Nicotinic acetylcholine receptor alpha-7 in rat brain.; type: tissue-based
T2 sequence (Q05941 whole entry): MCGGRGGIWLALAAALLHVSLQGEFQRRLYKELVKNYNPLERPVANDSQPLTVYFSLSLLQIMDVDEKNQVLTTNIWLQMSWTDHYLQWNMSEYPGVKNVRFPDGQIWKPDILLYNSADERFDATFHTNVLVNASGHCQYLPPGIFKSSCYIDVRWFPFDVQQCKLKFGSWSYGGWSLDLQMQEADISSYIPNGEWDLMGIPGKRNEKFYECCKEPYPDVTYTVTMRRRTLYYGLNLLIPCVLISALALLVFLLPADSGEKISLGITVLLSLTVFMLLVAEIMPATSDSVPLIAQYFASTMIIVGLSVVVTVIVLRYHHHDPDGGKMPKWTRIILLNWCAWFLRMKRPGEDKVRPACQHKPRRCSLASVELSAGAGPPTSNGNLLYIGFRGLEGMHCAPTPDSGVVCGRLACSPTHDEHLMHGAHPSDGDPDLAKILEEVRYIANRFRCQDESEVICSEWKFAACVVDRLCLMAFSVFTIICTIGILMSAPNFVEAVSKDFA

[3] = molecular target: T1, Neuronal acetylcholine receptor; alpha4/beta2; assay: Inhibition of [3H]nicotine binding to Nicotinic acetylcholine receptor alpha4-beta2 in rat brain.; type: tissue-based
[4] = molecular target: T1, Neuronal acetylcholine receptor; alpha4/beta2; assay: Inhibition of [3H]nicotine binding to Nicotinic acetylcholine receptor alpha4-beta2 in rat brain; type: tissue-based
[5] = molecular target: T2, Neuronal acetylcholine receptor subunit alpha-7; assay: Inhibition of [3H]-MLA binding to Nicotinic acetylcholine receptor alpha7 in rat brain; type: tissue-based
[6] = organism: Rattus norvegicus; assay: Inhibitory activity against nAChR mediated nicotine-evoked [3H]DA overflow using rat striatal slices; Not active; type: functional, organism-based

| Compound | pIC50 [1] | Ki [2] | Ki [3] | pKi [4] | pKi [5] | IC50 [6] |
| --- | --- | --- | --- | --- | --- | --- |
| CCCCCCCC[n+]1cccc2c1CC[C@@H]1CCN(C)[C@H]21.[I-] | 7.40 | Not Active | Not Active |  |  |  |
| CCCCCCCCCCCC[n+]1cccc([C@@H]2CCCN2C)c1.[I-] | 8.05 | Not Active |  | 6.85 |  |  |
| CCCCCCCCCC[n+]1ccccc1.[I-] | 6.89 | Not Active |  | 4.77 |  |  |
| CCCCCCCCC[n+]1ccc2c(c1)[C@H]1[C@@H](CC2)CCN1C.[I-] | 6.18 | Not Active | Not Active |  |  |  |
| CCCCCCCCCC[n+]1ccc2c(c1)[C@H]1[C@@H](CC2)CCN1C.[I-] | 6.24 | Not Active | Not Active |  |  |  |
| CCCCCCCCCCCC[n+]1ccccc1.[I-] | 6.59 | Not Active | Not Active |  |  |  |
| CCCCCCCCCCCCCCCCCCCC[n+]1ccccc1.[Br-] | 6.92 | Not Active | Not Active |  |  |  |
| CCCCCCCC[n+]1ccc2c(c1)[C@H]1[C@@H](CC2)CCN1C.[I-] | 7.10 | Not Active | Not Active |  |  |  |
| CCCCCCCC[n+]1cccc([C@@H]2CCCN2C)c1 |  |  |  |  | 4.92 |  |
| CCCCCCCCCC[n+]1cccc([C@@H]2CCCN2C)c1.[I-] |  | Not Active |  | 7.05 |  | Not Active |
| CCCCCCCCCCC[n+]1cccc2c1CC[C@@H]1CCN(C)[C@H]21.[I-] | 7.40 | Not Active | Not Active |  |  |  |
| c1cc[n+](CCCCCCCCCCCCCC[n+]2ccccc2)cc1 | 6.00 |  |  | 5.04 | 4.48 |  |
| CN1CCC[C@H]1c1ccc[n+](CCCCCCCCCCCCCC[n+]2cccc([C@@H]3CCCN3C)c2)c1.[Br-].[Br-] | 6.77 | Not Active |  | 5.71 |  |  |
| CCCCCCCCCC[n+]1cccc2c1CC[C@@H]1CCN(C)[C@H]21.[I-] | 7.52 | Not Active | Not Active |  |  |  |
| CCCCCCCCCCCC[n+]1cccc2c1CC[C@@H]1CCN(C)[C@H]21.[I-] |  | Not Active | Not Active |  |  | Not Active |
| CCCCCCCCCCC[n+]1ccc2c(c1)[C@H]1[C@@H](CC2)CCN1C.[I-] | 7.40 | Not Active | Not Active |  |  |  |
| CCCCCCCCCCCC[n+]1ccc2c(c1)[C@H]1[C@@H](CC2)CCN1C.[I-] | 6.66 | Not Active | Not Active |  |  |  |
| CCCCCCCCCCCCCCC[n+]1ccccc1.[Br-] | 6.49 | Not Active |  | 4.42 |  |  |
| CCCCCCCCC[n+]1cccc2c1CC[C@@H]1CCN(C)[C@H]21.[I-] | 6.51 | Not Active | Not Active |  |  |  |
